Assay results as given in US20120045528A1, “USE OF N20 GAS FOR TREATING CHRONIC PAIN” (priority 2009, published 2012).
Entries after “also recorded” stand apart in the source; their conditions may differ. Read-outs that look alike come from different tables or passages of the source.

Key:
[1] = tested on: neuropathic rat (sciatic nerve constriction, CCI); assay: Nociceptive threshold by vocalization test to a mechanical stimulus (Randall-Selitto) in rats with mononeuropathy from sciatic nerve constriction (CCI); assay type: in vivo, male Sprague-Dawley rats
Procedure: A mononeuropathy is induced in male Sprague-Dawley rats (8 per group) by sciatic nerve constriction. More specifically, on D0, the rats are anesthetized with halothane and the sciatic nerve (injured hind paw side) is prepared using chromic catgut, 4 filament. Neuropathic pain lasting more than 40 days is thus induced.
On D7, the rats are placed in a hermetic chamber where they will inhale, for 75 minutes, the test gas mixture or medical air in the control rats (Sham). Repeated exposures to the mixtures take place on D7, D8, and D9.
Other rats are subjected to comparative treatments with conventional painkilling products, namely ketamine (3×10 mg/kg, sc) and morphine (1 mg/kg, sc).
The nociceptive threshold is then measured via a vocalization test in response to a mechanical stimulus (Randall-Selitto).
The data obtained per measurement are expressed as mean (±standard deviation). The level of significance is set starting from P<0.05.

human beings = conditions: cited from earlier work
[2] = N2O concentration 5-25% (vol. %)
[3] = N2O concentration 26-45% (vol. %)
[4] = N2O concentration 45-65% (vol. %)
[5] = morphine 1 mg/kg sc, neuropathic rat

[N-]=[N+]=O [nitrous oxide]
duration of sustained reduction of chronic pain of neuropathic type ([1]; rat, in vivo): > 1 month | Amnesia (human beings; [2]): none | Analgesia (human beings; [2]): none | Contact (human beings; [2]): present | Psychic effects (human beings; [2]): slight | Amnesia (human beings; [3]): slight | Analgesia (human beings; [3]): weak | Contact (human beings; [3]): present | Psychic effects (human beings; [3]): drunkenness | Amnesia (human beings; [4]): complete | Analgesia (human beings; [4]): moderate | Contact (human beings; [4]): present | Psychic effects (human beings; [4]): drowsiness | Psychic effects, Amnesia, Analgesia, Contact (human beings; N2O concentration 66-85% (vol. %)): Patient unconscious

O=C1CC[C@@]2(O)[C@H]3Cc4ccc(O)c5c4[C@@]2(CCN3CC2CC2)[C@H]1O5 [naltrexone]
effect on the anti-sensitization effect of 50% nitrous oxide on the following days ([1]; naltrexone given to block the analgesic effect of 50% nitrous oxide on D7): does not modify

CN1CC[C@]23c4c5ccc(O)c4O[C@H]2[C@@H](O)C=C[C@H]3[C@H]1C5 [morphine]
duration of analgesic effect ([1]; morphine 1 mg/kg sc, D14, neuropathic rat): 30 min | delayed effect (following days) / anti-hyperalgesic long-term effect [1, 5]: without a delayed effect; also recorded: without any anti-hyperalgesic long-term effect | duration of effect following administration (in words) [1, 5]: limited to a few minutes

CNC1(c2ccccc2Cl)CCCCC1=O (stereo not shown) [ketamine]
duration of anti-hyperalgesic effect ([1]; ketamine 3x10 mg/kg sc, neuropathic rat): ≤ 2 days
